Laboratory results: US20230110351A1, “METHODS FOR TREATING PARKINSON'S DISEASE WITH SEPIAPTERIN” (PTC Therapeutics MP, Inc., priority 2020, published 2023)
Like-named read-outs stand apart in the source and are kept apart here.

Key:
[1] = Pharmacokinetic parameters for BH4 after single dose of sepiapterin or BH4 in fasted subjects; type: in vivo
Description: Six subjects received sepiapterin in each group and three subjects received BH4 in each group where this treatment was administered.
Values shown are means of plasma concentrations of BH4 following administration at the doses shown.

[2] = Food effect on administration of sepiapterin: plasma sepiapterin and BH4, fasted vs fed; type: in vivo; conditions: sepiapterin 10 mg/kg oral
Description: Method: Subjects received two oral doses of sepiapterin (10 mg/kg) separated by one week in a fasted and fed state. Subjects were fed a standard high-fat (approximately 50 percent of total caloric content of the meal) and high-calorie (approximately […] calories) meal starting 30 minutes prior to receiving their second oral dose of sepiapterin on Day 8.
Sampling for PK analysis occurred predose on Days 1 and 8 (within 30 minutes before dosing) and 0.5 hr, 1 hr, 2 hr, 4 hr, 8 hr, 12 hr, and 24 hr after the doses on Days 1 and 8. The blood concentrations of sepiapterin and BH4 were analyzed by MNG Labs.

[3] = CSF levels of sepiapterin, BH4, BH2, HVA and 5-HIAA after administration of sepiapterin; type: in vivo
Description: The cerebrospinal fluid (CSF) of selected subjects was collected via lumbar puncture on Day1 (before dose) and on Day 7 (i.e., following daily dosing for 7 days) approximately 30 minutes from time of the maximum observed plasma BH4 concentration (Tmax) as determined from the blood analysis. The cerebral spinal fluid (CSF) was analyzed. Descriptive statistics are provided to characterize any changes in neurotransmitter metabolism between the Day 1, and Day 7 sample results. Method: Analyses were conducted in CSF samples of subjects administered 60 mg/kg sepiapterin or placebo. The following analytes were measured: sepiapterin, BH4, BH2, homovanillic acid (HVA), and 5-hydroxyindoleacetic acid (HIAA). Descriptive (n, mean, SD, median, minimum, maximum) statistics for these analytes at Day 1 and Day 7+/−30 minutes from Tmax and change from baseline at Day 7 were determined for each analyte.

[4] = type: in vivo
Description: Method: Twelve subjects were given a single dose (10 mg/kg) of sepiapterin under fasting conditions and then 7 days later under fed conditions. Standard definitions of adverse events (AE) were used. All-cause AE were those that occurred at any time; treatment-emergent adverse events (TEAE) were those that occurred at or after the time of administration of study treatment. TEAEs related to study drug were based on the opinion of the investigator. Serious AE were defined as life threatening or caused death, hospitalization or prolongation of existing hospitalization, or were a persistent or significant disability/incapacity or a substantial disruption of the ability to conduct normal life functions, or a congenital anomaly/birth defect.

[5] = Pharmacokinetic analysis of multiple doses of sepiapterin (once daily, 7 days, fed subjects); type: in vivo
Description: Methods: Three cohorts of eight fed subjects each were randomized to receive once-daily sepiapterin or placebo for 7 days in a 6:2 ratio. A sentinel dose strategy was also used for administration of the highest sepiapterin dose.

[6] = 60 mg/kg sepiapterin arm, Day 1 (before dose)
[7] = 60 mg/kg sepiapterin, Day 7, +/-30 minutes from BH4 Tmax
[8] = 60 mg/kg sepiapterin, Day 7, same subject
[9] = Day 1 pre-dose, one subject with low baseline
[10] = human, plasma, po, 5 mg/kg, sepiapterin 5 mg/kg once daily, Day 1
[11] = human, plasma, po, 5 mg/kg, sepiapterin 5 mg/kg once daily, Day 7
[12] = human, plasma, po, 20 mg/kg, sepiapterin 20 mg/kg once daily, Day 1
[13] = human, plasma, po, 20 mg/kg, sepiapterin 20 mg/kg once daily, Day 7
[14] = human, plasma, po, 60 mg/kg, sepiapterin 60 mg/kg once daily, Day 1
[15] = human, plasma, po, 60 mg/kg, sepiapterin 60 mg/kg once daily, Day 7

In the case of C[C@H](O)C(=O)C1=Nc2c(nc(N)[nH]c2=O)NC1 [sepiapterin], the “AUC0-24 and AUC0-inf of BH4, subjects administered sepiapterin compared to subjects administered BH4” value [1] is reported as “much higher”, the concentration at 0 h ([2]; human, plasma, fasted, 0 h (predose), read-out: Sepiapterin Concentration in Plasma, Maximum) is reported as 0 nM and the concentration at 0.5 h ([2]; human, plasma, fasted, 0.5 h, read-out: Sepiapterin Concentration in Plasma, Minimum) is reported as 0 nM. It also gave a concentration at 4 h ([2]; human, plasma, fasted, 4 h, read-out: Sepiapterin Concentration in Plasma, Minimum) of 0 nM, a concentration at 8 h ([2]; human, plasma, fasted, 8 h, read-out: Sepiapterin Concentration in Plasma, Maximum) of 0 nM and a concentration at 12 h ([2]; human, plasma, fasted, 12 h, read-out: Sepiapterin Concentration in Plasma, Maximum) of 0 nM. For the same compound, the concentration at 24 h ([2]; human, plasma, fasted, 24 h, read-out: Sepiapterin Concentration in Plasma, Maximum) was 0 nM, the concentration at 1 h ([2]; human, plasma, fed, 1 h, read-out: Sepiapterin Concentration in Plasma, Minimum) was 0 nM and the concentration at 2 h ([2]; human, plasma, fed, 2 h, read-out: Sepiapterin Concentration in Plasma, Minimum) was 0 nM. The “Cmax of BH4 in the plasma, fed compared to fasted” value [2] was “much higher”, the “Cmax of sepiapterin in the plasma, fed compared to fasted” value [2] was “much lower” and the “Geometric mean ratio (fasted/fed, 90% CI) for plasma sepiapterin AUClast” value [2] was 1.29 (0.84 to 2.00). For the same compound, the “Geometric mean ratio (fasted/fed, 90% CI) for plasma sepiapterin Cmax” value [2] was 1.57 (1.21 to 2.0), the “Sepiapterin Concentration in Plasma, Mean” value ([2]; fasted, 0 h (predose)) was 0 nM and the “Sepiapterin Concentration in Plasma, Median” value ([2]; fasted, 0 h (predose)) was 0 nM. For the same compound, the concentration at 2 h ([2]; fasted, 0 h (predose), read-out: Sepiapterin Concentration in Plasma, Minimum) was 0 nM, the “Sepiapterin Concentration in Plasma, Mean” value ([2]; fasted, 8 h) was 0 nM and the “Sepiapterin Concentration in Plasma, Median” value ([2]; fasted, 8 h) was 0 nM. For the same compound, the concentration at 2 h ([2]; fasted, 8 h, read-out: Sepiapterin Concentration in Plasma, Minimum) was 0 nM, the “Sepiapterin Concentration in Plasma, Mean” value ([2]; fasted, 12 h) was 0 nM and the “Sepiapterin Concentration in Plasma, Median” value ([2]; fasted, 12 h) was 0 nM. For the same compound, the concentration at 2 h ([2]; fasted, 12 h, read-out: Sepiapterin Concentration in Plasma, Minimum) was 0 nM, the “Sepiapterin Concentration in Plasma, Mean” value ([2]; fasted, 24 h) was 0 nM and the “Sepiapterin Concentration in Plasma, Median” value ([2]; fasted, 24 h) was 0 nM. The concentration at 2 h ([2]; fasted, 24 h, read-out: Sepiapterin Concentration in Plasma, Minimum) was 0 nM, the “Sepiapterin Concentration in Plasma, Mean” value ([2]; fed, 0 h (predose)) was 0 nM and the “Sepiapterin Concentration in Plasma, Median” value ([2]; fed, 0 h (predose)) was 0 nM. The concentration at 24 h ([2]; fed, 0 h (predose), read-out: Sepiapterin Concentration in Plasma, Maximum) was 0 nM, the concentration at 2 h ([2]; fed, 0 h (predose), read-out: Sepiapterin Concentration in Plasma, Minimum) was 0 nM and the “Sepiapterin Concentration in Plasma, Median” value ([2]; fed, 0.5 h) was 0 nM. The concentration at 2 h ([2]; fed, 0.5 h, read-out: Sepiapterin Concentration in Plasma, Minimum) was 0 nM, the concentration at 2 h ([2]; fed, 4 h, read-out: Sepiapterin Concentration in Plasma, Minimum) was 0 nM and the “Sepiapterin Concentration in Plasma, Median” value ([2]; fed, 8 h) was 0 nM. The concentration at 2 h ([2]; fed, 8 h, read-out: Sepiapterin Concentration in Plasma, Minimum) was 0 nM, the “Sepiapterin Concentration in Plasma, Mean” value ([2]; fed, 12 h) was 0 nM and the “Sepiapterin Concentration in Plasma, Median” value ([2]; fed, 12 h) was 0 nM. The concentration at 24 h ([2]; fed, 12 h, read-out: Sepiapterin Concentration in Plasma, Maximum) was 0 nM, the concentration at 2 h ([2]; fed, 12 h, read-out: Sepiapterin Concentration in Plasma, Minimum) was 0 nM and the “Sepiapterin Concentration in Plasma, Mean” value ([2]; fed, 24 h) was 0 nM. The “Sepiapterin Concentration in Plasma, Median” value ([2]; fed, 24 h) was 0 nM, the concentration at 24 h ([2]; fed, 24 h, read-out: Sepiapterin Concentration in Plasma, Maximum) was 0 nM and the concentration at 2 h ([2]; fed, 24 h, read-out: Sepiapterin Concentration in Plasma, Minimum) was 0 nM. For the same compound, the “5-HIAA Mean Concentration in CSF” value [3, 6] was 14.6 ng/mL, the “HVA Mean Concentration in CSF” value [3, 6] was 32.3 ng/mL and the “Sepiapterin Mean Concentration in CSF” value [3, 6] was 0 ng/mL. For the same compound, the “Sepiapterin in the CSF” value ([3]; 60 mg/kg sepiapterin, Day 1 or Day 7 +/-30 minutes from BH4 Tmax) was “not detected”, the “Change in CSF concentration of 5-HIAA relative to Day 1” value ([3]; 60 mg/kg sepiapterin, Day 7) was -1.142 ng/mL and the “5-HIAA Mean Concentration in CSF” value [3, 7] was 13.4 ng/mL. For the same compound, the “HVA Mean Concentration in CSF” value [3, 7] was 33.7 ng/mL, the “Sepiapterin Mean Concentration in CSF” value [3, 7] was 0 ng/mL and the “Change in CSF concentration of HVA relative to Day 1” value ([3]; 60 mg/kg sepiapterin, Day 7, increase) was 1.378 ng/mL. The “CSF 5-HIAA concentration, one subject” value [3, 8] was 9.53 ng/mL, the “CSF HVA concentration, one subject” value [3, 8] was 29.93 ng/mL and the “CSF 5-HIAA concentration, one subject” value [3, 9] was 3.69 ng/mL. For the same compound, the “CSF HVA concentration, one subject” value [3, 9] was 10.02 ng/mL, the TEAE ([4]; human, in vivo, 10 mg/kg) was 4 and the “TEAE related to study drug” value ([4]; human, in vivo, 10 mg/kg) was 1. For the same compound, the “≥1 AE” value ([4]; human, in vivo, 10 mg/kg) was 5, the “Incidence of adverse events, fed compared to fasted subjects” value ([4]; single dose 10 mg/kg) was “decreased incidence of adverse events” and the Cmax [5, 10] was 0.6 ng/mL. The Tmax [5, 10] was 3 h, the AUC(0-inf) ([5]; human, plasma, po, 5 mg/kg, sepiapterin 5 mg/kg once daily, Day 1, read-out: AUC0-inf of sepiapterin) was 1 ng·h/mL and the Cmax [5, 11] was 0.6 ng/mL. The Tmax [5, 11] was 3 h, the AUC(0-inf) ([5]; human, plasma, po, 5 mg/kg, sepiapterin 5 mg/kg once daily, Day 7, read-out: AUC0-inf of sepiapterin) was 0.7 ng·h/mL and the Cmax [5, 12] was 1.2 ng/mL. The Tmax [5, 12] was 2.6 h, the AUC(0-inf) ([5]; human, plasma, po, 20 mg/kg, sepiapterin 20 mg/kg once daily, Day 1, read-out: AUC0-inf of sepiapterin) was 3.9 ng·h/mL and the Cmax [5, 13] was 1.3 ng/mL. For the same compound, the Tmax [5, 13] was 2.7 h, the AUC(0-inf) ([5]; human, plasma, po, 20 mg/kg, sepiapterin 20 mg/kg once daily, Day 7, read-out: AUC0-inf of sepiapterin) was 4.3 ng·h/mL and the Cmax [5, 14] was 2.7 ng/mL. It also gave a Tmax [5, 14] of 3.3 h, an AUC(0-inf) ([5]; human, plasma, po, 60 mg/kg, sepiapterin 60 mg/kg once daily, Day 1, read-out: AUC0-inf of sepiapterin) of 21.2 ng·h/mL and a Cmax [5, 15] of 2.8 ng/mL. For the same compound, the Tmax [5, 15] was 3 h, the AUC(0-inf) ([5]; human, plasma, po, 60 mg/kg, sepiapterin 60 mg/kg once daily, Day 7, read-out: AUC0-inf of sepiapterin) was 16 ng·h/mL and the AUC(0-t) ([5]; human, plasma, po, sepiapterin 60 mg/kg once daily, Day 1, read-out: AUC0-24 of sepiapterin) was 23 ng·h/mL. For the same compound, the “Drug accumulation (plasma sepiapterin and BH4 after 1 and 7 days of treatment)” value ([5]; once daily for 7 days) was “no drug accumulation”.
